Test results reported in paper PMC8934569 (Cancer chemotherapy and pharmacology, 2021).

Columns and labels:
[1] = tested on: recombinant cytochrome P450s; conditions: cited from earlier work
[2] = Drug-related adverse events graded by NCI CTCAE version 4.0; format: in vivo, human
[3] = tested on: MX-1 BRCA1 deficient breast cancer model; conditions: cyclophosphamide 12.5 mg/kg/day on days 20, 14, and 27 and veliparib 25 mg/kg/day; cited from earlier work
[4] = tested on: γH2AX in circulating tumor cells (CTCs); assay: Total CTCs and γH2AX-positive CTCs; format: in vivo, human; conditions: veliparib and AC
metastatic breast cancer = conditions: veliparib with oral cyclophosphamide; cited from earlier work
γH2AX in tumor = assay: γH2AX nuclear area positive score; format: in vivo, human; conditions: veliparib and AC, paired biopsy, baseline <5%
[5] = Group 1 N=31: veliparib Days 1-4 + cyclophosphamide Day 3
[6] = Group 2 N=22: veliparib Days 1-4 + AC Day 3
[7] = Groups 3 and 4 N=27: veliparib Days 1-7 or 1-14 + AC Day 1

In the case of `C[C@]1(c2nc3c(C(N)=O)cccc3[nH]2)CCCN1` [veliparib, 2-[(R)-2-methylpyrrolidin-2-yl]-1H-benzimidazole-4-carboxamide], the “MTD or recommended phase II dose of veliparib with AC” value (Phase I dose escalation; Group 2: Days 1-4 with AC 60/600 mg/m^2 Day 3 every 21 days) is reported as 100 mg every 12 h, the “No. of Pts with DLTS” value (Phase I dose escalation; Group 3 Level 1b: veliparib 100 mg every 12 h Days 1-7 + cyclophosphamide 600 mg/m^2 + doxorubicin 60 mg/m^2 Day 1, n=14) is reported as 0 and the “No. of Pts with DLTS” value (Phase I dose escalation; Group 4 Level 1b: veliparib 100 mg every 12 h Days 1-14 + cyclophosphamide 600 mg/m^2 + doxorubicin 60 mg/m^2 Day 1, n=13) is reported as 0. For the same molecule, the “P450 involvement in incubations with recombinant cytochrome P450s” value ([1]; known when the study was developed, no reference given) was “potential involvement of CYP1A1, 2D6, 2C19, and 3A4”, the Metabolizing enzymes ([1]; only partially by CYP1A2, 2C19 and 3A4) was “primarily metabolized by CYP2D6” and the “Anemia, All Grades” value [2, 5] was 8 (26) n (%). The “Anemia, Gr 3” value [2, 5] was 2 (6) n (%), the “Anemia, Gr 4” value [2, 5] was 0 (0) n (%) and the “Anorexia, All Grades” value [2, 5] was 0 (0) n (%). The “Anorexia, Gr 3” value [2, 5] was 0 (0) n (%), the “Anorexia, Gr 4” value [2, 5] was 0 (0) n (%) and the “Dehydration, All Grades” value [2, 5] was 0 (0) n (%). The “Dehydration, Gr 3” value [2, 5] was 0 (0) n (%), the “Dehydration, Gr 4” value [2, 5] was 0 (0) n (%) and the “Fatigue, All Grades” value [2, 5] was 12 (39) n (%). For the same molecule, the “Fatigue, Gr 3” value [2, 5] was 1 (3) n (%), the “Fatigue, Gr 4” value [2, 5] was 0 (0) n (%) and the “Febrile neutropenia, All Grades” value [2, 5] was 1 (3) n (%). The “Febrile neutropenia, Gr 3” value [2, 5] was 1 (3) n (%), the “Febrile neutropenia, Gr 4” value [2, 5] was 0 (0) n (%) and the “Hyponatremia, All Grades” value [2, 5] was 0 (0) n (%). The “Hyponatremia, Gr 3” value [2, 5] was 0 (0) n (%), the “Hyponatremia, Gr 4” value [2, 5] was 0 (0) n (%) and the “Hypophosphatemia, All Grades” value [2, 5] was 1 (3) n (%). For the same molecule, the “Hypophosphatemia, Gr 3” value [2, 5] was 1 (3) n (%), the “Hypophosphatemia, Gr 4” value [2, 5] was 0 (0) n (%) and the “Hypotension, All Grades” value [2, 5] was 1 (3) n (%). The “Hypotension, Gr 3” value [2, 5] was 1 (3) n (%), the “Hypotension, Gr 4” value [2, 5] was 0 (0) n (%) and the “Lymphocyte count decreased, All Grades” value [2, 5] was 8 (26) n (%). The “Lymphocyte count decreased, Gr 3” value [2, 5] was 4 (13) n (%), the “Lymphocyte count decreased, Gr 4” value [2, 5] was 2 (6) n (%) and the “Nausea, All Grades” value [2, 5] was 5 (16) n (%). For the same molecule, the “Nausea, Gr 3” value [2, 5] was 0 (0) n (%), the “Nausea, Gr 4” value [2, 5] was 0 (0) n (%) and the “Neutrophil count decreased, All Grades” value [2, 5] was 11 (35) n (%). The “Neutrophil count decreased, Gr 3” value [2, 5] was 4 (13) n (%), the “Neutrophil count decreased, Gr 4” value [2, 5] was 3 (10) n (%) and the “Platelet count decreased, All Grades” value [2, 5] was 5 (16) n (%). For the same molecule, the “Platelet count decreased, Gr 3” value [2, 5] was 1 (3) n (%), the “Platelet count decreased, Gr 4” value [2, 5] was 1 (3) n (%) and the “Sepsis, All Grades” value [2, 5] was 0 (0) n (%). For the same molecule, the “Sepsis, Gr 3” value [2, 5] was 0 (0) n (%), the “Sepsis, Gr 4” value [2, 5] was 0 (0) n (%) and the “Vomiting, All Grades” value [2, 5] was 5 (16) n (%). For the same molecule, the “Vomiting, Gr 3” value [2, 5] was 0 (0) n (%), the “Vomiting, Gr 4” value [2, 5] was 0 (0) n (%) and the “White blood cell decreased, All Grades” value [2, 5] was 9 (29) n (%). For the same molecule, the “White blood cell decreased, Gr 3” value [2, 5] was 6 (19) n (%), the “White blood cell decreased, Gr 4” value [2, 5] was 1 (3) n (%) and the “Anemia, All Grades” value [2, 6] was 16 (73) n (%). For the same molecule, the “Anemia, Gr 3” value [2, 6] was 4 (18) n (%), the “Anemia, Gr 4” value [2, 6] was 0 (0) n (%) and the “Anorexia, All Grades” value [2, 6] was 5 (23) n (%). For the same molecule, the “Anorexia, Gr 3” value [2, 6] was 0 (0) n (%), the “Anorexia, Gr 4” value [2, 6] was 0 (0) n (%) and the “Dehydration, All Grades” value [2, 6] was 1 (5) n (%). The “Dehydration, Gr 3” value [2, 6] was 1 (5) n (%), the “Dehydration, Gr 4” value [2, 6] was 0 (0) n (%) and the “Fatigue, All Grades” value [2, 6] was 16 (73) n (%). The “Fatigue, Gr 3” value [2, 6] was 0 (0) n (%), the “Fatigue, Gr 4” value [2, 6] was 0 (0) n (%) and the “Febrile neutropenia, All Grades” value [2, 6] was 3 (14) n (%). The “Febrile neutropenia, Gr 3” value [2, 6] was 2 (9) n (%), the “Febrile neutropenia, Gr 4” value [2, 6] was 2 (9) n (%) and the “Hyponatremia, All Grades” value [2, 6] was 1 (5) n (%). For the same molecule, the “Hyponatremia, Gr 3” value [2, 6] was 1 (5) n (%), the “Hyponatremia, Gr 4” value [2, 6] was 0 (0) n (%) and the “Hypophosphatemia, All Grades” value [2, 6] was 0 (0) n (%). For the same molecule, the “Hypophosphatemia, Gr 3” value [2, 6] was 0 (0) n (%), the “Hypophosphatemia, Gr 4” value [2, 6] was 0 (0) n (%) and the “Hypotension, All Grades” value [2, 6] was 0 (0) n (%). The “Hypotension, Gr 3” value [2, 6] was 0 (0) n (%), the “Hypotension, Gr 4” value [2, 6] was 0 (0) n (%) and the “Lymphocyte count decreased, All Grades” value [2, 6] was 13 (59) n (%). For the same molecule, the “Lymphocyte count decreased, Gr 3” value [2, 6] was 10 (45) n (%), the “Lymphocyte count decreased, Gr 4” value [2, 6] was 2 (9) n (%) and the “Nausea, All Grades” value [2, 6] was 10 (45) n (%). For the same molecule, the “Nausea, Gr 3” value [2, 6] was 0 (0) n (%), the “Nausea, Gr 4” value [2, 6] was 0 (0) n (%) and the “Neutrophil count decreased, All Grades” value [2, 6] was 19 (86) n (%). The “Neutrophil count decreased, Gr 3” value [2, 6] was 10 (45) n (%), the “Neutrophil count decreased, Gr 4” value [2, 6] was 13 (59) n (%) and the “Platelet count decreased, All Grades” value [2, 6] was 14 (64) n (%). The “Platelet count decreased, Gr 3” value [2, 6] was 4 (18) n (%), the “Platelet count decreased, Gr 4” value [2, 6] was 2 (9) n (%) and the “Sepsis, All Grades” value [2, 6] was 1 (5) n (%). For the same molecule, the “Sepsis, Gr 3” value [2, 6] was 0 (0) n (%), the “Sepsis, Gr 4” value [2, 6] was 1 (5) n (%) and the “Vomiting, All Grades” value [2, 6] was 3 (14) n (%). For the same molecule, the “Vomiting, Gr 3” value [2, 6] was 0 (0) n (%), the “Vomiting, Gr 4” value [2, 6] was 0 (0) n (%) and the “White blood cell decreased, All Grades” value [2, 6] was 21 (95) n (%). The “White blood cell decreased, Gr 3” value [2, 6] was 11 (50) n (%), the “White blood cell decreased, Gr 4” value [2, 6] was 14 (64) n (%) and the “Anemia, All Grades” value [2, 7] was 18 (67) n (%). For the same molecule, the “Anemia, Gr 3” value [2, 7] was 11 (41) n (%), the “Anemia, Gr 4” value [2, 7] was 1 (4) n (%) and the “Anorexia, All Grades” value [2, 7] was 0 (0) n (%). For the same molecule, the “Anorexia, Gr 3” value [2, 7] was 0 (0) n (%), the “Anorexia, Gr 4” value [2, 7] was 0 (0) n (%) and the “Dehydration, All Grades” value [2, 7] was 0 (0) n (%). For the same molecule, the “Dehydration, Gr 3” value [2, 7] was 0 (0) n (%), the “Dehydration, Gr 4” value [2, 7] was 0 (0) n (%) and the “Fatigue, All Grades” value [2, 7] was 4 (15) n (%). For the same molecule, the “Fatigue, Gr 3” value [2, 7] was 0 (0) n (%), the “Fatigue, Gr 4” value [2, 7] was 0 (0) n (%) and the “Febrile neutropenia, All Grades” value [2, 7] was 3 (11) n (%). For the same molecule, the “Febrile neutropenia, Gr 3” value [2, 7] was 3 (11) n (%), the “Febrile neutropenia, Gr 4” value [2, 7] was 0 (0) n (%) and the “Hyponatremia, All Grades” value [2, 7] was 0 (0) n (%). For the same molecule, the “Hyponatremia, Gr 3” value [2, 7] was 0 (0) n (%), the “Hyponatremia, Gr 4” value [2, 7] was 0 (0) n (%) and the “Hypophosphatemia, All Grades” value [2, 7] was 0 (0) n (%). For the same molecule, the “Hypophosphatemia, Gr 3” value [2, 7] was 0 (0) n (%), the “Hypophosphatemia, Gr 4” value [2, 7] was 0 (0) n (%) and the “Hypotension, All Grades” value [2, 7] was 0 (0) n (%). For the same molecule, the “Hypotension, Gr 3” value [2, 7] was 0 (0) n (%), the “Hypotension, Gr 4” value [2, 7] was 0 (0) n (%) and the “Lymphocyte count decreased, All Grades” value [2, 7] was 25 (93) n (%). The “Lymphocyte count decreased, Gr 3” value [2, 7] was 23 (85) n (%), the “Nausea, All Grades” value [2, 7] was 6 (22) n (%) and the “Nausea, Gr 3” value [2, 7] was 0 (0) n (%). The “Nausea, Gr 4” value [2, 7] was 0 (0) n (%), the “Neutrophil count decreased, All Grades” value [2, 7] was 21 (78) n (%) and the “Neutrophil count decreased, Gr 4” value [2, 7] was 19 (70) n (%). For the same molecule, the “Platelet count decreased, All Grades” value [2, 7] was 19 (70) n (%), the “Platelet count decreased, Gr 3” value [2, 7] was 7 (26) n (%) and the “Platelet count decreased, Gr 4” value [2, 7] was 6 (22) n (%). The “Sepsis, All Grades” value [2, 7] was 0 (0) n (%), the “Sepsis, Gr 3” value [2, 7] was 0 (0) n (%) and the “Sepsis, Gr 4” value [2, 7] was 0 (0) n (%). The “Vomiting, All Grades” value [2, 7] was 4 (15) n (%), the “Vomiting, Gr 3” value [2, 7] was 0 (0) n (%) and the “Vomiting, Gr 4” value [2, 7] was 0 (0) n (%). The “White blood cell decreased, All Grades” value [2, 7] was 24 (89) n (%), the “White blood cell decreased, Gr 3” value [2, 7] was 21 (78) n (%) and the “White blood cell decreased, Gr 4” value [2, 7] was 14 (52) n (%). For the same molecule, the “Patients given growth factor support after cycle 1” value ([2]; across the whole trial (n=22 of 80)) was 28%, the “Patients requiring a dose reduction of veliparib” value ([2]; overall, 80 patients enrolled) was 23 patients and the “Tumor effect of the combination” value [3] was “tumor regression”. The “Change in percentage of γH2AX-positive CTCs from Day 1 to Day 14” value ([4]; groups 3 and 4 combined, p =0.0006) was “significant increase”, the “Change in CTCs from Day 1 to Day 7” value ([4]; groups 3 and 4 combined, p =0.0007) was “significant decrease” and the “Change in CTCs from Day 1 to Day 14” value ([4]; groups 3 and 4 combined, p =0.0009) was “significant decrease”. For the same molecule, the “Change in percentage of γH2AX-positive CTCs from Day 1 to Day 7” value ([4]; groups 3 and 4 combined, p =0.016) was “significant increase”, the “Patients in whom γH2AX-positive CTCs ≥ 50% persisted to day 14” value ([4]; groups 3 and 4, cycle 1) was 10 patients and the Clinical benefit (metastatic breast cancer) was 19.2%. For the same molecule, the “γH2AX nuclear area positive score (%NAP) after treatment” value (γH2AX in tumor; patient with partial response) was 3.23%, the “γH2AX nuclear area positive score (%NAP) after treatment” value (γH2AX in tumor; patient with progressive disease) was 10.96% and the “γH2AX nuclear area positive score (%NAP) after treatment” value (γH2AX in tumor; patient with stable disease) was 5.2%. For the same molecule, the “γH2AX nuclear area positive score (%NAP) after treatment” value (γH2AX in tumor; response could not be assessed) was 4.5%.
